# Patent US9902702B2, “Spirocycloheptanes as inhibitors of rock” (BRISTOL-MYERS SQUIBB COMPANY, priority 2014, dated 2018)
# Structures can show the parent of a compound that is named as a salt.
# Target: ROCK2 (Homo sapiens, UniProt O75116)
# Experiment: ROCK assay: phosphorylation of FITC peptide substrate, LABCHIP 3000 mobility shift
# Type: biochemical
# Conditions: 5 μM ATP, 1.5 μM peptide substrate; read-out: ROCK2 Activity (ROCK IC50 range)
# Procedure, shortened: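 IC50 values come from curve-fitting percent kinase inhibition across a compound dilution series. The reaction is started with Rho kinase variant in HEPES pH 7.5 buffer with MgCl2, Brij-35 and DTT, with 5 μM ATP, 1.5 μM FITC-labelled peptide and under 2% DMSO. After EDTA quench, product and substrate are separated by microfluidic mobility shift.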
# Sequence of ROCK2 (O75116 whole entry, species assumed): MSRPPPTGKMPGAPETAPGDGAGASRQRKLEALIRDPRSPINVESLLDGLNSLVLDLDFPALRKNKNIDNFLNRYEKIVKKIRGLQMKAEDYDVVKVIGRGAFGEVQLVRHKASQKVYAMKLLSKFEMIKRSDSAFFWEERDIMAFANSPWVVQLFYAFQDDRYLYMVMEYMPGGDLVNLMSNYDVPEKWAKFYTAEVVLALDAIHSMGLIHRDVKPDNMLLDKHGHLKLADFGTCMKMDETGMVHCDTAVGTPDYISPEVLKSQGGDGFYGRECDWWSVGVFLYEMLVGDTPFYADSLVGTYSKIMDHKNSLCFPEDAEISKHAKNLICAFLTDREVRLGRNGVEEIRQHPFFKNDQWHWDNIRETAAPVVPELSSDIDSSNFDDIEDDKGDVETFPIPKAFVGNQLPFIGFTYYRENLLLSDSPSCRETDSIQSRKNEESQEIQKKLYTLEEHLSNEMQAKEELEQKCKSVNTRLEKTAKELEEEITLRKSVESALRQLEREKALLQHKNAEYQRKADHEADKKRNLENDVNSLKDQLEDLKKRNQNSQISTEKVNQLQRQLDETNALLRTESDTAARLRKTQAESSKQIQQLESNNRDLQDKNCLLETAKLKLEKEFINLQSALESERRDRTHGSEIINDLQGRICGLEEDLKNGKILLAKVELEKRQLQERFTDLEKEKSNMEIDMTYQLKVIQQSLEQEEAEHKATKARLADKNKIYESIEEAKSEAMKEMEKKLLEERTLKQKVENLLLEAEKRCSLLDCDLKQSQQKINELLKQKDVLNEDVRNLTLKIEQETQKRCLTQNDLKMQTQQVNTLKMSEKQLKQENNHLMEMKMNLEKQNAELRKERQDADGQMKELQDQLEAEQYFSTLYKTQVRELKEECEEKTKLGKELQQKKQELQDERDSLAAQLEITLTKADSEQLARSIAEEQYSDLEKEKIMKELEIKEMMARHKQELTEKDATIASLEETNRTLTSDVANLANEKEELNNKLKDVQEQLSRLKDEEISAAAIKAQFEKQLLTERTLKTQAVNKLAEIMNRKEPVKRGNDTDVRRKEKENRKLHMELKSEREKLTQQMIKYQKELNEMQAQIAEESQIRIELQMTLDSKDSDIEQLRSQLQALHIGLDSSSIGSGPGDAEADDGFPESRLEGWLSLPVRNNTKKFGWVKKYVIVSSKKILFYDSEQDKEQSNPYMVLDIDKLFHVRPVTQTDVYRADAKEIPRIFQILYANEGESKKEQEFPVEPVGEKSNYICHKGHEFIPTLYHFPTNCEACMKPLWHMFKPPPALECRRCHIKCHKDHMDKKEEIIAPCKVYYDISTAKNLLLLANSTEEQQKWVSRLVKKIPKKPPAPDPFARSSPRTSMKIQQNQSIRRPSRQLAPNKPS
row,SMILES,IC50
1,"[H][C@]1(c2n[nH]c(=O)c3ccccc32)C[C@]2(C[C@@H](NC(=O)c3ccc4c(cnn4C)c3)C2)C1 (stereo partly drawn) [Example 373, 1-methyl-N-((aR)-6-(4-oxo-3,4-dihydrophthalazin-1-yl)spiro[3.3]heptan-2-yl)-1H-indazole-5-carboxamide]",15.1 to 100 nM
2,"Cn1nc(C(=O)N[C@H]2CC3(C2)C[C@H](c2n[nH]c(=O)c4ccccc42)C3)c2ccccc21 (single isomer, unassigned) [Example 17]",100 to 2100 nM
3,"[H][C@]1(c2n[nH]c(=O)c3ccccc32)C[C@]2(C[C@@H](NC(=O)c3cccc(OCCN4CCOCC4)c3)C2)C1 (stereo partly drawn) [Example 338, 3-(2-morpholino-ethoxy)-N-((aR)-6-(4-oxo-3,4-dihydrophthalazin-1-yl)spiro[3.3]heptan-2-yl)benzamide]",15.1 to 100 nM
4,"[H][C@]1(c2n[nH]c(=O)c3ccccc32)C[C@]2(C[C@@H](NC(=O)c3ccc4cnn(C)c4c3)C2)C1 (stereo partly drawn) [Example 366, 1-methyl-N-((aR)-6-(4-oxo-3,4-dihydrophthalazin-1-yl)spiro[3.3]heptan-2-yl)-1H-indazole-6-carboxamide]",5.1 to 15 nM
5,"[H][C@]1(c2n[nH]c(=O)c3ccccc32)C[C@]2(C[C@@H](NC(=O)c3ccc(-c4cnn(C5CC5)c4)c(F)c3)C2)C1 (stereo partly drawn) [Example 448, 4-(1-cyclopropyl-1H-pyrazol-4-yl)-3-fluoro-N-((aR)-6-(4-oxo-3,4-dihydrophthalazin-1-yl)spiro[3.3]heptan-2-yl)benzamide]",2.01 to 5 nM
6,"[H][C@]1(c2n[nH]c(=O)c3ccccc32)C[C@]2(C[C@@H](NC(=O)c3ccc(-n4cnc(C)c4)c(OC)c3)C2)C1 (stereo partly drawn) [Example 349, 3-methoxy-4-(4-methyl-1H-imidazol-1-yl)-N-((aR)-6-(4-oxo-3,4-dihydrophthalazin-1-yl)spiro[3.3]heptan-2-yl)benzamide]",5.1 to 15 nM

# Second part, the molecule after the results:
row,IC50,SMILES
1,0.2 to 2 nM,"[H][C@]1(c2n[nH]c(=O)c3ccccc32)C[C@]2(C[C@@H](NC(=O)c3cnc4cc(SC)ccn34)C2)C1 (stereo partly drawn) [Example 414, 7-(methylthio)-N-((aR)-6-(4-oxo-3,4-dihydrophthalazin-1-yl)spiro[3.3]heptan-2-yl)imidazo[1,2-a]pyridine-3-carboxamide]"
2,0.2 to 2 nM,"[H][C@]1(c2n[nH]c(=O)c3ccccc32)C[C@]2(C[C@@H](NC(=O)c3cnc4cc(-c5cnn(C(C)C)c5)ccn34)C2)C1 (stereo partly drawn) [Example 441, 7-(1-isopropyl-1H-pyrazol-4-yl)-N-((aR)-6-(4-oxo-3,4-dihydrophthalazin-1-yl)spiro[3.3]heptan-2-yl)imidazo[1,2-a]pyridine-3-carboxamide]"
3,0.2 to 2 nM,"Cn1cc(-c2ccc3c(C(=O)NC4CC5(C4)CC(c4n[nH]c(=O)c6ccccc46)C5)cnn3c2)cn1 (stereo not drawn) [Example 170, 6-(1-methyl-1H-pyrazol-4-yl)-N-((αR)-6-(4-oxo-3,4-dihydrophthalazin-1-yl)spiro[3.3]heptan-2-yl)pyrazolo[1,5-α]pyridine-3-carboxamide]"
4,0.2 to 2 nM,"[H][C@]1(c2n[nH]c(=O)c3ccccc32)C[C@]2(C[C@@H](NC(=O)c3cnn4cc(OCC(C)(C)OC(=O)CN)ccc34)C2)C1 (stereo partly drawn) [Example 268, 2-methyl-1-((3-(((aR)-6-(4-oxo-3,4-dihydrophthalazin-1-yl)spiro[3.3]heptan-2-yl)carbamoyl)pyrazolo[1,5-a]pyridin-6-yl)oxy)propan-2-yl2-aminoacetate, TFA]"
5,0.2 to 2 nM,[H][C@]1(c2n[nH]c(=O)c3ccccc32)C[C@]2(C[C@@H](NC(=O)c3cnc4cc(-c5cnn(C6CCOCC6)c5)ccn34)C2)C1 (stereo partly drawn) [Example 443]
6,0.2 to 2 nM,"O=C(NC1CC2(C1)CC(c1n[nH]c(=O)c3ccccc13)C2)c1cnn2cc(-c3cnn(C(F)F)c3)ccc12 (stereo not drawn) [Example 167, 6-(1-(difluoromethyl)-1H-pyrazol-4-yl)-N-((αR)-6-(4-oxo-3,4-dihydrophthalazin-1-yl)spiro[3.3]heptan-2-yl)pyrazolo[1,5-α]pyridine-3-carboxamide]"
